# Source: patent publication US9682976B2, “Protein kinase C inhibitors and uses thereof” (Rigel Pharmaceuticals, Inc., priority 2012, dated 2017)
# System: PKC mediated IL-2 production
# Assay: IL-2 ELISA, human primary T cell, anti CD3+CD28+
# Type: cell-based
# Conditions: human primary T cells stimulated with αCD3 and αCD28, 24 hours
# Summary of the method: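 IL-2 was quantified by ELISA in 24 h supernatants from primary human T cells given a 1 h compound pre-treatment at 37° C. These cells had been expanded from blood mononuclear cells on αCD3/αCD28 with IL-2, and the IL-2 was removed by washing. Stimulation used plate-bound αCD3 ([…]) plus αCD28 (5 μg/ml); the counter assay used PMA (0.5 ng/ml) with ionomycin (0.1 uM) instead.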
Structure (SMILES),"EC50 (Homo sapiens, T-cell, 24 h) [nM]",EC50 [nM]
"CC1(C)C[C@H](Nc2nc(Nc3ccc(OCC4(CO)COC4)c(-n4cnnn4)c3)ncc2F)C[C@@H]2CCCN21 [Compound 204, (3-((4-((4-(((7R,8aS)-5,5-dimethyloctahydroindolizin-7-yl)amino)-5-fluoropyrimidin-2-yl)amino)-2-(1H-tetrazol-1-yl)phenoxy)methyl)oxetan-3-yl)methanol]",500 to 1000,–
"CC1(C)CC(Nc2nc(Nc3ccc(O[C@@H]4CCOC4)c(C#N)c3)ncc2F)CC2CCCN21 (single isomer, unassigned) [Compound 59]",–,100 to 500
"CC1(C)CC[C@H]2C[C@@H](Nc3nc(Nc4ccc(N5CC6(COC6)C5)c(OC(F)F)c4)ncc3F)CCN21 [Compound 302, N2-(3-(Difluoromethoxy)-4-(2-oxa-6-azaspiro[3.3]heptan-6-yl)phenyl)-N4-((7S,8aS)-3,3-dimethyloctahydroindolizin-7-yl)-5-fluoropyrimidine-2,4-diamine]",500 to 1000,–
"Cn1nnn(-c2cc(Nc3ncc(F)c(N[C@@H]4C[C@@H]5CCCN5C(C)(C)C4)n3)c(F)cc2OCCN2CCOCC2)c1=O [Compound 195, 1-(5-((4-(((7R,8aS)-5,5-dimethyloctahydroindolizin-7-yl)amino)-5-fluoropyrimidin-2-yl)amino)-4-fluoro-2-(2-morpholinoethoxy)phenyl)-4-methyl-1,4-dihydro-5H-tetrazol-5-one]",500 to 1000,–
"CC(C)N1CCC(Oc2ccc(Nc3ncc(F)c(N[C@H]4C[C@H]5CCCN5C(C)(C)C4)n3)cc2OC(F)F)CC1 (single isomer, unassigned) [Compound 7, (R/S, S/R, R/R, S/S)-N^2-(4-(1-isopropylpiperidin-4-yloxy)-3-(difluoromethoxy)phenyl)-5-fluoro-N^4-(octahydro-5,5-dimethylindolizin-7-yl)pyrimidine-2,4-diamine]",–,1000 to 10000
"CC1(C)CC(Nc2nc(Nc3cc(-n4cnnn4)c(C4CC4)cc3F)ncc2F)CC2CCCN21 (single isomer, unassigned) [Compound 55, N^2-(4-cyclopropyl-2-fluoro-5-(1H-tetrazol-1-yl)phenyl)-5-fluoro-N^4-(octahydro-5,5-dimethylindolizin-7-yl)pyrimidine-2,4-diamine]",–,100 to 500
"Cn1nnn(-c2cc(Nc3ncc(C#N)c(N[C@@H]4C[C@@H]5CCCN5C(C)(C)C4)n3)c(F)cc2OC2CCOCC2)c1=O [Compound 115, 4-(((7R,8aS)-5,5-dimethyloctahydroindolizin-7-yl)amino)-2-((2-fluoro-5-(4-methyl-5-oxo-4,5-dihydro-1H-tetrazol-1-yl)-4-((tetrahydro-2H-pyran-4-yl)oxy)phenyl)amino)pyrimidine-5-carbonitrile]",500 to 1000,–
CC1(O)COc2ccc(Nc3ncc(F)c(N[C@@H]4C[C@@H]5CCCN5C(C)(C)C4)n3)cc2-n2nnnc21 (some centres unmarked) [Compound 127],–,< 100
"CC(O)COc1ccc(Nc2ncc(Cl)c(N[C@@H]3C[C@@H]4CCCN4C(C)(C)C3)n2)cc1C#N (stereo partly drawn) [Compound 229, 5-((5-chloro-4-(((7R,8aS)-5,5-dimethyloctahydroindolizin-7-yl)amino)pyrimidin-2-yl)amino)-2-(2-hydroxypropoxy)benzonitrile]",1000 to 10000,–
"CC1(C)C[C@H](Nc2nc(Nc3ccc(N4CC(C(N)=O)C4)c(C(F)(F)F)c3)ncc2F)C[C@@H]2CCCN21 [Compound 324, 1-(4-(4-((7R,8aS)-octahydro-5,5-dimethylindolizin-7-ylamino)-5-fluoropyrimidin-2-ylamino)-2-(trifluoromethyl)phenyl)azetidine-3-carboxamide]",500 to 1000,–
"CC1(C)CC[C@H]2C[C@@H](Nc3nc(Nc4ccc(OC5CC(OCc6ccccc6)C5)c(Cl)c4)ncc3F)CCN21 (stereo partly drawn) [Compound 310, N2-(4-(3-(Benzyloxy)cyclobutoxy)-3-chlorophenyl)-N4-((7S,8aS)-3,3-dimethyloctahydroindolizin-7-yl)-5-fluoropyrimidine-2,4-diamine]",1000 to 10000,–

# Continued, values first:
"EC50 (Homo sapiens, T-cell, 24 h) [nM]",EC50 [nM],Structure (SMILES)
100 to 500,–,"Cn1nnn(-c2cc(Nc3ncc(C#N)c(N[C@@H]4C[C@@H]5CCCN5C(C)(C)C4)n3)c(F)cc2OC(C)(C)CO)c1=O [Compound 84, 4-((7R,8aS)-octahydro-5,5-dimethylindolizin-7-ylamino)-2-(4-(1-hydroxy-2-methylpropan-2-yloxy)-2-fluoro-5-(4,5-dihydro-4-methyl-5-oxotetrazol-1-yl)phenylamino)pyrimidine-5-carbonitrile]"
100 to 500,–,"COc1cc(Nc2ncc(Cl)c(N[C@@H]3C[C@@H]4CCCN4C(C)(C)C3)n2)cc(OC)c1 [Compound 162, 5-chloro-N2-(3,5-dimethoxyphenyl)-N4-((7R,8aS)-5,5-dimethyloctahydroindolizin-7-yl)pyrimidine-2,4-diamine]"
100 to 500,–,"CC1(C)C[C@H](Nc2nc(Nc3ccc(OCCO)c(C#N)c3)ncc2F)C[C@@H]2CCCN21 [Compound 189, 5-((4-(((7R,8aS)-5,5-dimethyloctahydroindolizin-7-yl)amino)-5-fluoropyrimidin-2-yl)amino)-2-(2-hydroxyethoxy)benzonitrile]"
100 to 500,–,"Cc1ccc(Nc2ncc(F)c(N[C@@H]3C[C@@H]4CCCN4C(C)(C)C3)n2)cc1-n1nnn(CCO)c1=O [Compound 275, 1-(5-(4-((7R,8aS)-octahydro-5,5-dimethylindolizin-7-ylamino)-5-fluoropyrimidin-2-ylamino)-2-methylphenyl)-4-(2-hydroxyethyl)-1H-tetrazol-5(4H)-one]"
< 100,–,"CC1(C)C[C@H](Nc2nc(Nc3cccc(-n4nnnc4SC4COC4)c3)ncc2F)C[C@@H]2CCCN21 [Compound 262, 5-fluoro-N4-((7R,8aS)-octahydro-5,5-dimethylindolizin-7-yl)-N2-(3-(5-(oxetan-3-ylthio)-1H-tetrazol-1-yl)phenyl)pyrimidine-2,4-diamine]"
100 to 500,–,"COc1cc(F)c(Nc2ncc(F)c(N[C@@H]3C[C@@H]4CCCN4C(C)(C)C3)n2)cc1-n1nnn(C)c1=O [Compound 22, 1-(5-(4-((7R,8aS)-5,5-dimethyl-octahydroindolizin-7-ylamino)-5-fluoropyrimidin-2-ylamino)-4-fluoro-2-methoxyphenyl)-4-methyl-1H-tetrazol-5(4H)-one]"
< 100,–,"Cn1nnn(-c2cc(Nc3ncc(Cl)c(N[C@@H]4C[C@@H]5CCCN5C(C)(C)C4)n3)c(F)cc2C2CC2)c1=O [Compound 148, 1-(5-((5-chloro-4-(((7R,8aS)-5,5-dimethyloctahydroindolizin-7-yl)amino)pyrimidin-2-yl)amino)-2-cyclopropyl-4-fluorophenyl)-4-methyl-1,4-dihydro-5H-tetrazol-5-one]"
100 to 500,–,"Cn1nnn(-c2cc(Nc3ncc(F)c(N[C@@H]4C[C@@H]5CCCN5C(C)(C)C4)n3)c(F)cc2OCC2(C)COC2)c1=O [Compound 159, 1-(5-((4-(((7R,8aS)-5,5-dimethyloctahydroindolizin-7-yl)amino)-5-fluoropyrimidin-2-yl)amino)-4-fluoro-2-((3-methyloxetan-3-yl)methoxy)phenyl)-4-methyl-1,4-dihydro-5H-tetrazol-5-one]"
100 to 500,–,"Cn1nnn(-c2cc(Nc3ncc(F)c(N[C@@H]4C[C@@H]5CCCN5C(C)(C)C4)n3)c(F)cc2O[C@@H]2CCOC2)c1=O [Compound 109, 1-(5-((4-(((7R,8aS)-5,5-dimethyloctahydroindolizin-7-yl)amino)-5-fluoropyrimidin-2-yl)amino)-4-fluoro-2-(((R)-tetrahydrofuran-3-yl)oxy)phenyl)-4-methyl-1,4-dihydro-5H-tetrazol-5-one]"
< 100,–,"COc1cc(-n2nnnc2C)cc(Nc2ncc(F)c(N[C@@H]3C[C@@H]4CCCN4C(C)(C)C3)n2)c1F [Compound 242, 5-fluoro-N2-(2-fluoro-3-methoxy-5-(5-methyl-1H-tetrazol-1-yl)phenyl)-N4-((7R,8aS)-octahydro-5,5-dimethylindolizin-7-yl)pyrimidine-2,4-diamine]"
100 to 500,–,"CC1(C)C[C@H](Nc2nc(Nc3ccc(OCCO)c(Cl)c3)ncc2F)C[C@@H]2CCCN21 [Compound 133, 2-(2-chloro-4-((4-(((7R,8aS)-5,5-dimethyloctahydroindolizin-7-yl)amino)-5-fluoropyrimidin-2-yl)amino)phenoxy)ethan-1-ol]"
< 100,–,"Cc1nnnn1-c1cc(Nc2ncc(F)c(N[C@@H]3C[C@@H]4CCCN4C(C)(C)C3)n2)c(F)cc1OC1COC1 [Compound 249, 5-fluoro-N2-(2-fluoro-5-(5-methyl-1H-tetrazol-1-yl)-4-(oxetan-3-yloxy)phenyl)-N4-((7R,8aS)-octahydro-5,5-dimethylindolizin-7-yl)pyrimidine-2,4-diamine]"
< 100,–,"CSc1nnnn1-c1cccc(Nc2ncc(F)c(N[C@@H]3C[C@@H]4CCCN4C(C)(C)C3)n2)c1 [Compound 261, 5-fluoro-N4-((7R,8aS)-octahydro-5,5-dimethylindolizin-7-yl)-N2-(3-(5-(methylthio)-1H-tetrazol-1-yl)phenyl)pyrimidine-2,4-diamine]"
100 to 500,–,"CC1(C)C[C@H](Nc2nc(Nc3ccc(OCCCO)c(C#N)c3)ncc2F)C[C@@H]2CCCN21 [Compound 213, 5-((4-(((7R,8aS)-5,5-dimethyloctahydroindolizin-7-yl)amino)-5-fluoropyrimidin-2-yl)amino)-2-(3-hydroxypropoxy)benzonitrile]"
100 to 500,–,"Cn1nc2n(c1=O)-c1cc(Nc3ncc(F)c(N[C@@H]4C[C@@H]5CCCN5C(C)(C)C4)n3)ccc1OC21CCOCC1 [Compound 283, 5-fluoro-N2-(1H-2,4-dihydron-spiro(2H-1,4-benzoxazine-4,4′-[4H]pyran)-2-methyl-[1,2,4]triazolo[3,4-c][1,4]benzoxazin-1-one-8-yl)-N4-((7R,8aS)-octahydro-5,5-dimethylindolizin-7-yl)pyrimidine-2,4-diamine]"
